“Also recorded” adds a separate entry of the source.
Key:
[1] = system: Mtb mutant bioA TetON-1 strain; type: cell-based, Mycobacterium tuberculosis
[2] = system: Mtb carrying an Rv3406 overexpression plasmid (pGMEH-Ptb38-rv3406); type: cell-based, Mycobacterium tuberculosis

Structure (SMILES) | sensitivity of bioA TetON-1 compared to wild-type Mtb [1] | resistance relative to wild-type Mtb [2] [fold]
CO[C@H]1/C=C/O[C@@]2(C)Oc3c(C)c(O)c4c(O)c(c(/C=N/N5CCN(C)CC5)c(O)c4c3C2=O)NC(=O)/C(C)=C\C=C\[C@H](C)[C@H](O)[C@@H](C)[C@@H](O)[C@@H](C)[C@H](OC(C)=O)[C@@H]1C [rifampicin] | more sensitive than wild-type Mtb; also recorded: more resistant than wild-type Mtb | –
Nc1ncnc2c1ncn2[C@@H]1O[C@H](CNS(=O)(=O)NC(=O)CCCC[C@@H]2SC[C@@H]3NC(=O)N[C@@H]32)[C@@H](O)[C@H]1O [Bio-AMS, 5′-[N-(d-biotinoyl)sulfamoyl]amino-5′-deoxyadenosine] | – | 64

— PMC6151865, “Targeting protein biotinylation enhances tuberculosis chemotherapy” (Science Translational Medicine, 2018)
